Assay results reported in patent publication US20080160101A1, “Composition For Use Against One Or More Pathogens” (Bionext, priority 2004, published 2008).
Where “and” joins values, the source holds several entries; their conditions need not be identical. Identical values can stand only once. Entries after “also recorded” stand apart in the source; their conditions may differ.

Legend:
[1] = test system: Botrytis cinerea; assay: Protection of wounded apples against Botrytis cinerea (lesion diameter, percentage of protection); type: in vivo; settings: for Efficiency % / Average infection: Table 10, salt + strain O 10^5, CaCl2 20 g/l, CG 2 g/l, CGt 1.805 g/l, TC 0.848 g/l, PC 0.964 g/l, 5 days; for results of combination of salt with C. oleophila, in words (conclusions): salt combined with C. oleophila, apples, salts tested only in Example 5
[2] = test system: Penicillium expansum; assay: Protection of wounded apples against postharvest rot caused by Penicillium expansum (lesion diameter, percentage of protection); type: in vivo; design: Average infection: unit not given here
Protocol: Apples (Malus domestica Borkh cv. Golden) were harvested from commercial orchards maintained with standard cultural practices in Belgium and placed in regular long term storage. Commercial class I fruits were used. They were bought from wholesale dealers and stored in a cold room at 4±1° C. for maximum 15 days before use.
Penicillium expansum (blue mould) strains were initially isolated from apples in Gembloux Belgium. Conidia from pathogen were put in suspension in a glycerol solution (25%) and stored at −70° C. Starting from this stored material, the fungal strain was transferred to PDA medium at 25° C. Conidial suspensions were prepared in an aqueous sterile solution of Tween 20 (0.05%), and were adjusted to the required concentration (10^6 spores/ml) using a Bürker cell.
The antagonistic yeast strain was Candida oleophila Montrocher deposited under number 40564 at the BBCM™/MUCL Culture Collection of the Mycotheque de l'Universite Catholique de Louvain, hereinafter designated as “strain 0”.
This antagonistic yeast strain was isolated from apple surface and stored at −70° C. in a glycerol solution (25%). Before use, the yeast strain was subcultured three times successively at 24 hours intervals on PDA (Potato Dextrose Agar). At the third generation, yeast cells were removed from the culture medium and suspended in isotonic water (NaCl 0.85%). Suspension concentrations were adjusted to the required values after the establishment of a regression line in relation with the micro-organisms suspension absorbance (at 595 nm) and the number of colony forming units (cfu) of the same suspension spread onto PDA.
Fruits were disinfected by dipping for 2 minutes in sodium hypochlorite (10% of the commercial product). They were rinsed in sterile water and dried out under laminar flux before being wounded by removing 4 mm diameter and 2-3 mm deep blocks of tissue from three sites 4-5 cm apart along one side of the surface of the fruits.
The wounds were treated by application of 40 μl of compositions of the state of the art or compositions according to the invention.
After a 24 h at 20° C. incubation period in plastic boxes, the wounds were inoculated with 40 μl of the respective conidial suspensions of the pathogens. The fruits were incubated at 25° C.
[…] At least five fruits (15 wounds) were used per treatment. Most of the time, 15 fruits and 45 wounds were used per treatment.
The percentage of protection provided by the different treatments was calculated from the diameter of lesion caused by the fruit rot agent after the incubation time using the following formula: […]
wherein Y is the percentage of protection; DT is the mean diameter of lesions for the untreated control and DX is the mean diameter of lesions for the treated fruits.
The effect of the compositions according to the invention against postharvest apple rots caused by P. expansum was evaluated under controlled conditions.
(§1) The apples were wounded as described in Example 2 and treated by application of compositions comprising a salt according to the invention and 10^5 cfu C. oleophila, or compositions of the state of the art.
After incubation, the wounds were inoculated with Penicillum expansum. The fruits are further incubated. […] The percentage of protection provided by the different treatments was calculated as described in Example 2.
as §1

[3] = Table 3, first series, CG 2 g/l + strain O 10^5 cfu/ml, 7 days
[4] = Table 4, second series, CG 2 g + strain O 10^5 cfu/ml, 7 days
[5] = Table 5, third series, CG 2 g + strain O 10^5 cfu/ml, 7 days
[6] = Table 6a, salt + strain O 10^5, CG 2 g/l, TC 0.87 g/l, CCa 0.47 g/l, CL 1.34 g/l, CLG 1.3 g/l, CA 1.96 g/l, 7 days
[7] = Table 6b, salt + strain O 10^5, CG 2 g/l, TC 0.87 g/l, CCa 0.47 g/l, CL 1.34 g/l, CLG 1.3 g/l, CA 1.96 g/l, 7 days
[8] = Table 7, salt + strain O 10^5, CaCl2 20 g/l, CG 2 g/l, TC 0.87 g/l, CCA 0.47 g/l
[9] = Table 8, salt + strain O 10^5, CaCl2 20 g/l, CG 2 g/l, CCa 0.47 g/l, CBC 0.762 g/l, CPT 0.486 g/l, CPM 1.485 g/l, 7 days
[10] = Table 9, salt + strain O 10^5, CaCl2 20 g/l, CG 2 g/l, CCa 0.47 g/l, CBC 0.762 g/l, CPT 0.486 g/l, CPM 1.485 g/l, 11 days
[11] = salt + strain O 10^5 cfu/ml compared with strain O alone
[12] = salt combined with C. oleophila, apples

Row | Molecule | Efficiency % [1] | Average infection [2, 6] | Efficiency % [2, 6] | Average infection [2, 7] | Efficiency % [2, 7] | Average infection [2, 9] | Efficiency % [2, 9] | Average infection [2, 10] | Efficiency % [2, 10] | results of combination of salt with C. oleophila, in words (conclusions) [2, 12] | other results
1 | calcium gluconate [CG] | 60.7% | 4.8 | 73.8% | 6.50 | 74.2% | 0.5 | 77.4% | 1.5 | 70.5% | Very good results | Average infection [2, 3]: 1.5; Protection Efficiency % [2, 3]: 87.3%; Average infection [2, 4]: 1.2; Protection Efficiency % [2, 4]: 90.7%; Average infection [2, 5]: 2.7; Protection Efficiency % [2, 5]: 79.3%; Average infection [2, 8]: 1.7; Efficiency % [2, 8]: 93.5%; protection against P. expansum, in words [2, 11]: improved the protection; also recorded: better and enhanced efficacy; protection against P. expansum, in words ([2]; salt + strain O 10^5 cfu/ml compared with strain O alone, listed as calcium gluconate): good protection
2 | O=C([O-])CC(O)(CC(=O)[O-])C(=O)[O-].O=C([O-])CC(O)(CC(=O)[O-])C(=O)[O-].[Ca+2].[Ca+2].[Ca+2] [TC, tricalcium citrate] | 78.9% | 2.8 | 84.8% | 6.67 | 83.3% |  |  |  |  |  | Average infection [1]: 0.3; Average infection [2, 8]: 1.0; Efficiency % [2, 8]: 96.4%; results of combination of salt with C. oleophila, in words (conclusions) ([2]; in vivo): Very good results
3 | O=[N+]([O-])[O-].O=[N+]([O-])[O-].[Ca+2] [CN, Calcium Nitrate, reference compound] |  |  |  |  |  |  |  |  |  |  | Average infection ([2]; in vivo): 7.6 and 10.9; protection against P. expansum, in words ([2]; in vivo): less efficient
4 | calcium ascorbate |  | 5.4 | 70.9% | 5.31 | 86.7% |  |  |  |  |  | results of combination of salt with C. oleophila, in words (conclusions) ([2]; in vivo): Very good results
5 | CC(O)C(=O)[O-].CC(O)C(=O)[O-].[Ca+2] (stereo not drawn) [CL, calcium lactate] |  | 7.7 | 58.1% | 6.06 | 82.5% |  |  |  |  |  | results of combination of salt with C. oleophila, in words (conclusions) ([2]; in vivo): Very good results
6 | calcium bicarbonate [CBC] |  |  |  |  |  | 0.5 | 76.5% | 2.1 | 59.0% | Very good results | protection against P. expansum, in words [2, 11]: good protection
7 | N[C@@H](CCC(=O)[O-])C(=O)[O-].[Ca+2] [CGt, calcium glutamate] | 51.3% |  |  |  |  |  |  |  |  |  | Average infection [1]: 0.8
8 | calcium lactogluconate [CLG] |  | 5.6 | 69.4% | 6.21 | 86.3% |  |  |  |  | Very good results | 
9 | [Ca+2].[Cl-].[Cl-] [CaCl2, reference compound] | 82.4% |  |  |  |  | 0.3 | 87.6% | 0.6 | 87.7% |  | Average infection [1]: 0.3; Average infection [2, 8]: 0.7; Efficiency % [2, 8]: 97.4%
10 | O=P([O-])(O)O.O=P([O-])(O)O.[Ca+2] [CPM, calcium phosphate monobasic] |  |  |  |  |  | 0.1 | 94.4% | 0.7 | 86.6% | Very good results | protection against P. expansum, in words [2, 11]: good protection
11 | O=C([O-])CC(O)(CC(=O)[O-])C(=O)[O-].[K+].[K+].[K+] [PC, potassium citrate] | 66.4% |  |  |  |  |  |  |  |  |  | Average infection [1]: 0.5; results of combination of salt with C. oleophila, in words (conclusions) [1]: Very good results
12 | N[C@@H](CCC(=O)[O-])C(=O)[O-].[K+].[K+] [potassium glutamate] |  |  |  |  |  |  |  |  |  |  | results of combination of salt with C. oleophila, in words (conclusions) [1]: Very good results
13 | O=C([O-])[O-].[Ca+2] [CCa, calcium carbonate] |  |  |  |  |  |  |  |  |  |  | Efficiency % ([2]; in vivo): 77.9% and 92.8% and 97.2% and 88.6% and 85.1%; protection against P. expansum, in words ([2]; in vivo): good protection; results of combination of salt with C. oleophila, in words (conclusions) ([2]; in vivo): Very good results
14 | O=P([O-])([O-])[O-].O=P([O-])([O-])[O-].[Ca+2].[Ca+2].[Ca+2] [CPT, calcium phosphate tribasic] |  |  |  |  |  | 0.4 | 84.1% | 0.9 | 82.1% | Very good results | protection against P. expansum, in words [2, 11]: good protection
